System: HBV rcDNA in HepDE19 cells
Test: HepDE19 assay with bDNA quantitation of HBV rcDNA
Assay type: cell-based, hepatitis B virus
Conditions: Hepatitis B virus, HepDE19, HepDE19 assay, inhibition of rcDNA formation, bDNA quantitation; read-out: DE-19bDNA EC50

Row | SMILES | EC50
1 | COc1ccc2cc(C(=O)N(C)[C@@H]3COCc4[nH]c(=O)c5cc(F)c(F)cc5c43)[nH]c2c1 [Compound 364, (S)-N-(8,9-Difluoro-6-oxo-1,4,5,6-tetrahydro-2H-pyrano[3,4-c]isoquinolin-1-yl)-6-methoxy-N-methyl-1H-indole-2-carboxamide] | 30 nM
2 | CN(C(=O)c1cnc(C(F)(F)F)c(Br)c1)[C@@H]1COCc2[nH]c(=O)c3cc(F)c(F)cc3c21 [Compound 365, (S)-5-Bromo-N-(8,9-difluoro-6-oxo-1,4,5,6-tetrahydro-2H-pyrano[3,4-c]isoquinolin-1-yl)-N-methyl-6-(trifluoromethyl)nicotinamide] | 60 nM
3 | CN(C(=O)c1ccc2ccc(Cl)n2c1)[C@@H]1COCc2[nH]c(=O)c3cc(F)c(F)cc3c21 [Compound 366, (S)-3-Chloro-N-(8,9-difluoro-6-oxo-1,4,5,6-tetrahydro-2H-pyrano[3,4-c]isoquinolin-1-yl)-N-methylindolizine-6-carboxamide] | 100 nM
4 | COc1c2ccc(C(=O)N(C)[C@@H]3COCc4[nH]c(=O)c5cc(F)c(F)cc5c43)cc2nn1C(F)F [Compound 367, (S)-N-(8,9-Difluoro-6-oxo-1,4,5,6-tetrahydro-2H-pyrano[3,4-c]isoquinolin-1-yl)-2-(difluoromethyl)-3-methoxy-N-methyl-2H-indazole-6-carboxamide] | 4600 nM
5 | COc1c2cc(C(=O)N(C)[C@@H]3COCc4[nH]c(=O)c5cc(F)c(F)cc5c43)ccc2nn1C(F)F [Compound 368, (S)-N-(8,9-Difluoro-6-oxo-1,4,5,6-tetrahydro-2H-pyrano[3,4-c]isoquinolin-1-yl)-2-(difluoromethyl)-3-methoxy-N-methyl-2H-indazole-5-carboxamide] | 3400 nM
6 | COc1n[nH]c2ccc(C(=O)N(C)[C@@H]3COCc4[nH]c(=O)c5cc(F)c(F)cc5c43)cc12 [Compound 369, (S)-N-(8,9-Difluoro-6-oxo-1,4,5,6-tetrahydro-2H-pyrano[3,4-c]isoquinolin-1-yl)-3-methoxy-N-methyl-1H-indazole-5-carboxamide] | 6100 nM
7 | CN(C(=O)C1CN(c2csc(Cl)c2)C1)[C@@H]1COCc2[nH]c(=O)c3cc(F)c(F)cc3c21 [Compound 370, (S)-1-(5-Chlorothiophen-3-yl)-N-(8,9-difluoro-6-oxo-1,4,5,6-tetrahydro-2H-pyrano[3,4-c]isoquinolin-1-yl)-N-methylazetidine-3-carboxamide] | 490 nM
8 | CN(C(=O)c1cc2ccnc(Cl)c2[nH]1)[C@@H]1COCc2[nH]c(=O)c3cc(F)c(F)cc3c21 [Compound 371, (S)-7-Chloro-N-(8,9-difluoro-6-oxo-1,4,5,6-tetrahydro-2H-pyrano[3,4-c]isoquinolin-1-yl)-N-methyl-1H-pyrrolo[2,3-c]pyridine-2-carboxamide] | 140 nM
9 | CN(C(=O)c1cc2c(Cl)nccc2[nH]1)[C@@H]1COCc2[nH]c(=O)c3cc(F)c(F)cc3c21 [Compound 372, (S)-4-Chloro-N-(8,9-difluoro-6-oxo-1,4,5,6-tetrahydro-2H-pyrano[3,4-c]isoquinolin-1-yl)-N-methyl-1H-pyrrolo[3,2-c]pyridine-2-carboxamide] | 20 nM
10 | CN(C(=O)c1ccn2c(Cl)ccc2c1)[C@@H]1COCc2[nH]c(=O)c3cc(F)c(F)cc3c21 [Compound 373, (S)-3-Chloro-N-(8,9-difluoro-6-oxo-1,4,5,6-tetrahydro-2H-pyrano[3,4-c]isoquinolin-1-yl)-N-methylindolizine-7-carboxamide] | 10 nM
11 | CN(C(=O)c1cc2cc(C(F)F)ccn2c1)[C@@H]1COCc2[nH]c(=O)c3cc(F)c(F)cc3c21 [Compound 374, (S)-N-(8,9-Difluoro-6-oxo-1,4,5,6-tetrahydro-2H-pyrano[3,4-c]isoquinolin-1-yl)-7-(difluoromethyl)-N-methylindolizine-2-carboxamide] | 24000 nM
12 | CN(C(=O)c1cc2ccc(C(F)F)cn2c1)[C@@H]1COCc2[nH]c(=O)c3cc(F)c(F)cc3c21 [Compound 375, (S)-N-(8,9-Difluoro-6-oxo-1,4,5,6-tetrahydro-2H-pyrano[3,4-c]isoquinolin-1-yl)-6-(difluoromethyl)-N-methylindolizine-2-carboxamide] | 330 nM
13 | CN(C(=O)c1cc2cc(F)c(F)cc2n1COP(=O)(OC(C)(C)C)OC(C)(C)C)[C@@H]1COCc2[nH]c(=O)c3cc(F)c(F)cc3c21 [Compound 376, (S)-di-tert-Butyl ((2-((8,9-difluoro-6-oxo-1,4,5,6-tetrahydro-2H-pyrano[3,4-c]isoquinolin-1-yl)(methyl)carbamoyl)-5,6-difluoro-1H-indol-1-yl)methyl)phosphate] | 10 nM
14 | CN(C(=O)c1cnc(C(F)(F)F)c(Cl)c1)[C@@H]1COCc2[nH]c(=O)c3cc(F)c(F)cc3c21 [Compound 377, (S)-5-Chloro-N-(8,9-difluoro-6-oxo-1,4,5,6-tetrahydro-2H-pyrano[3,4-c]isoquinolin-1-yl)-N-methyl-6-(trifluoromethyl)nicotinamide] | 40 nM
15 | CN(C(=O)c1cc2c(Br)c(Cl)ncc2[nH]1)[C@@H]1COCc2[nH]c(=O)c3cc(F)c(F)cc3c21 [Compound 384, (S)-4-Bromo-5-chloro-N-(8,9-difluoro-6-oxo-1,4,5,6-tetrahydro-2H-pyrano[3,4-c]isoquinolin-1-yl)-N-methyl-1H-pyrrolo[2,3-c]pyridine-2-carboxamide] | 20 nM
16 | CN(C(=O)c1cc2c(C(F)F)cccn2c1)[C@@H]1COCc2[nH]c(=O)c3cc(F)c(F)cc3c21 [Compound 407, (S)-N-(8,9-difluoro-6-oxo-1,4,5,6-tetrahydro-2H-pyrano[3,4-c]isoquinolin-1-yl)-8-(difluoromethyl)-N-methylindolizine-2-carboxamide] | 10 nM
17 | CN(C(=O)c1ccc2c(c1)CCC2)[C@@H]1COCc2[nH]c(=O)c3cc(F)c(F)cc3c21 [Compound 408, (S)-N-(8,9-Difluoro-6-oxo-1,4,5,6-tetrahydro-2H-pyrano[3,4-c]isoquinolin-1-yl)-N-methyl-2,3-dihydro-1H-indene-5-carboxamide] | 40 nM
18 | CN(C(=O)c1ccc2ncoc2c1)[C@@H]1COCc2[nH]c(=O)c3cc(F)c(F)cc3c21 [Compound 409, (S)-N-(8,9-Difluoro-6-oxo-1,4,5,6-tetrahydro-2H-pyrano[3,4-c]isoquinolin-1-yl)-N-methylbenzo[d]oxazole-6-carboxamide] | 2300 nM
19 | CN(C(=O)c1cc2c(Cl)nc(Cl)cc2[nH]1)[C@@H]1COCc2[nH]c(=O)c3cc(F)c(F)cc3c21 [Compound 410, (S)-4,6-Dichloro-N-(8,9-difluoro-6-oxo-1,4,5,6-tetrahydro-2H-pyrano[3,4-c]isoquinolin-1-yl)-N-methyl-1H-pyrrolo[3,2-c]pyridine-2-carboxamide] | 40 nM
20 | CN(C(=O)c1cc2cc(F)c(F)cc2[nH]1)[C@@H]1COC(F)c2[nH]c(=O)c3cc(F)c(F)cc3c21 (stereo partly drawn) [Compound 411, 5,6-Difluoro-N-methyl-N-((1S)-4,8,9-trifluoro-6-oxo-1,4,5,6-tetrahydro-2H-pyrano[3,4-c]isoquinolin-1-yl)-1H-indole-2-carboxamide] | 10 nM
21 | CN(C(=O)c1cnc(C(F)(F)F)c(F)c1)[C@@H]1COCc2[nH]c(=O)c3cc(F)c(F)cc3c21 [Compound 412, (S)-N-(8,9-Difluoro-6-oxo-1,4,5,6-tetrahydro-2H-pyrano[3,4-c]isoquinolin-1-yl)-5-fluoro-N-methyl-6-(trifluoromethyl)nicotinamide] | 30 nM
22 | CN(C(=O)c1ccc2c(c1)c(Cl)nn2C)[C@@H]1COCc2[nH]c(=O)c3cc(F)c(F)cc3c21 [Compound 415, (S)-3-Chloro-N-(8,9-difluoro-6-oxo-1,4,5,6-tetrahydro-2H-pyrano[3,4-c]isoquinolin-1-yl)-N,1-dimethyl-1H-indazole-5-carboxamide] | 60 nM
23 | CCn1nc(Cl)c2cc(C(=O)N(C)[C@@H]3COCc4[nH]c(=O)c5cc(F)c(F)cc5c43)ccc21 [Compound 416, (S)-3-Chloro-N-(8,9-difluoro-6-oxo-1,4,5,6-tetrahydro-2H-pyrano[3,4-c]isoquinolin-1-yl)-1-ethyl-N-methyl-1H-indazole-5-carboxamide] | 80 nM
24 | Cc1nn(C(F)F)c2ccc(C(=O)N(C)[C@@H]3COCc4[nH]c(=O)c5cc(F)c(F)cc5c43)cc12 [Compound 417, (S)-N-(8,9-Difluoro-6-oxo-1,4,5,6-tetrahydro-2H-pyrano[3,4-c]isoquinolin-1-yl)-1-(difluoromethyl)-N,3-dimethyl-1H-indazole-5-carboxamide] | 20 nM
25 | CN(C(=O)c1ccc2ocnc2c1)[C@@H]1COCc2[nH]c(=O)c3cc(F)c(F)cc3c21 [Compound 426, (S)-N-(8,9-Difluoro-6-oxo-1,4,5,6-tetrahydro-2H-pyrano[3,4-c]isoquinolin-1-yl)-N-methylbenzo[d]oxazole-5-carboxamide] | 90 nM
26 | CN(C(=O)c1ccc2scnc2c1)[C@@H]1COCc2[nH]c(=O)c3cc(F)c(F)cc3c21 [Compound 427, (S)-N-(8,9-Difluoro-6-oxo-1,4,5,6-tetrahydro-2H-pyrano[3,4-c]isoquinolin-1-yl)-N-methylbenzo[d]thiazole-5-carboxamide] | 170 nM
27 | CN(C(=O)c1ccc2ncsc2c1)[C@@H]1COCc2[nH]c(=O)c3cc(F)c(F)cc3c21 [Compound 428, (S)-N-(8,9-Difluoro-6-oxo-1,4,5,6-tetrahydro-2H-pyrano[3,4-c]isoquinolin-1-yl)-N-methylbenzo[d]thiazole-6-carboxamide] | 340 nM
28 | CN(C(=O)c1ccc2[nH]ncc2c1)[C@@H]1COCc2[nH]c(=O)c3cc(F)c(F)cc3c21 [Compound 429, (S)-N-(8,9-Difluoro-6-oxo-1,4,5,6-tetrahydro-2H-pyrano[3,4-c]isoquinolin-1-yl)-N-methyl-1H-indazole-5-carboxamide] | 980 nM
29 | CN(C(=O)c1ccc2c(c1)c(C(F)F)nn2C)[C@@H]1COCc2[nH]c(=O)c3cc(F)c(F)cc3c21 [Compound 436, (S)-N-(8,9-Difluoro-6-oxo-1,4,5,6-tetrahydro-2H-pyrano[3,4-c]isoquinolin-1-yl)-3-(difluoromethyl)-N,1-dimethyl-1H-indazole-5-carboxamide] | 100 nM
